Assay results from patent US9840510B1, “Pyrazolo[1,5-a]pyrimidinyl carboxamide compounds and their use in the treatment of medical disorders” (Lysosomal Therapeutics Inc., priority 2016, dated 2017).
In brackets after ≈: the same amount, converted by molar mass.

Assays:
[1] = biological target: T1, glucocerebrosidase (Gcase) (Homo sapiens, UniProt P04062); assay: Glucocerebrosidase (Gcase) activation assay, 4-methylumbelliferyl-beta-D-glucopyranoside substrate, fluorescence endpoint; format: biochemical; conditions: for Percent Gcase Activation, 0.1 μM Test Compound: test compound at 0.1 μM; for Percent Gcase Activation, 1 μM Test Compound: test compound at 1.0 μM
T1 sequence (P04062 40-536): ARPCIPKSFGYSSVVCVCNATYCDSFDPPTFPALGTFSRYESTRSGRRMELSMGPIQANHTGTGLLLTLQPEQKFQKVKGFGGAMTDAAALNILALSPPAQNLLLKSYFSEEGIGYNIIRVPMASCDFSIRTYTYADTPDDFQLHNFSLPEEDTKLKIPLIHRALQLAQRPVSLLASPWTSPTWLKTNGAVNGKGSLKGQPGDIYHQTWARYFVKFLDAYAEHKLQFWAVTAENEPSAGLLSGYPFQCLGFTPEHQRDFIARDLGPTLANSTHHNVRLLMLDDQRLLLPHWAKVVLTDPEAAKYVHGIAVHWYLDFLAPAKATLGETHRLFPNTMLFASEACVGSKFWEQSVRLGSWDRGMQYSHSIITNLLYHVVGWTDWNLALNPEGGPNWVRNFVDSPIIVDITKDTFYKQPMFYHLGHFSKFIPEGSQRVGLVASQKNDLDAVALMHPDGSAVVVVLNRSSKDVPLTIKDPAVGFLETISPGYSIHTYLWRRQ
Procedure: The ability of exemplary compounds to activate glucocerebrosidase (Gcase) was measured.
A 484 μL aliquot of a 1.0 mg/mL solution of phosphatidylserine (PS) (Sigma P7769) in chloroform was evaporated under a stream of nitrogen for 1 hour. The lipid film was dissolved over 4 minutes of vigorous vortexing in 40 mL of 176 mM K2HPO4/50 mM citric acid (pH 4.7) containing 7.5 μL of triton X-100, resulting in a mixed micellar preparation with a composition of 0.32 mM triton and 0.37 mol % PS. 4-Methylumbelliferyl-beta-D-glucopyranoside (ACROS-337025000) was dissolved in the micellar solution to a final concentration of 2 mM for use as the reaction substrate.
Test compounds were diluted to the desired concentrations with dimethylsulfoxide (DMSO) from 10 mM stocks, and 0.41 μL of the DMSO compound mixture was added to 100 μL of micellar solution containing 10 nM GCase and 100 nM saposin C (Enzo ALX-201-262-C050). Pre-incubation was allowed to occur for 30 minutes at room temperature, after which the reaction was initiated by combining 25 μL of substrate solution with 25 μL of compound/GCase/saposin mixture. The reaction proceeded for 15 minutes at room temperature and was stopped by adding 150 μL of 1M glycine, pH 12.5. The endpoint of the reaction was monitored by measuring fluorescence intensity (excitation: 365 nm; emission: 440 nm) on a SpectraMax i3 instrument (Molecular Devices). Test compounds were screened at 1.0 and 0.1 μM final concentration, and subsequent 8-point dose response curves were obtained using 3-fold dilutions from a maximum final concentration of 5 μM.

[2] = Compound solubility in water; format: physicochemical

SMILES | Percent Gcase Activation, 0.1 μM Test Compound [1] | Percent Gcase Activation, 1 μM Test Compound [1] | solubility [2] [µg/mL] | Compound Solubility in Water [2] [µg/mL]
Cc1cc(-c2cccc(F)n2)nc2c(C(=O)NC(C)C3CC3)cnn12 (stereo not shown) [III-130] | *** (greater than 20% Gcase activation) | +++ (Gcase activation greater than 60%) | 0.2 (≈ 0.589 µM) | –
COc1cccc(-c2cc(C)n3ncc(C(=O)NC(C4CC4)C(F)(F)F)c3n2)c1 (stereo not shown) [III-105] | *** (greater than 20% Gcase activation) | +++ (Gcase activation greater than 60%) | 0.08 (≈ 0.198 µM) | –
Cc1cc(-c2ccc(Cl)cn2)nc2c(C(=O)N[C@@H](C3CC3)C(F)(F)F)cnn12 [III-118] | *** (greater than 20% Gcase activation) | +++ (Gcase activation greater than 60%) | 0.4 (≈ 0.976 µM) | –
Cc1cc(-c2nc3ccccc3n2C)nc2c(C(=O)NC(C3CC3)C(F)(F)F)cnn12 (stereo not shown) [III-312] | – | – | 0.3 (≈ 0.7 µM) | –
Cc1cc(-c2ccc3ocnc3c2)nc2c(C(=O)N[C@@H](C)C(F)(F)F)cnn12 [III-168] | – | – | 0.3 (≈ 0.771 µM) | –
COCOc1cccc(-c2cc(C)n3ncc(C(=O)N[C@@H](C4CC4)C(F)(F)F)c3n2)n1 [III-384] | – | – | 0.1 (≈ 0.23 µM) | –
Cc1cc(-c2ccccc2C#N)nc2c(C(=O)NC(C3CC3)C(F)(F)F)cnn12 (stereo not shown) [III-211] | – | – | 0.2 (≈ 0.501 µM) | –

Results, then the compound that gave them:

Percent Gcase Activation, 0.1 μM Test Compound [1] | Percent Gcase Activation, 1 μM Test Compound [1] | solubility [2] [µg/mL] | Compound Solubility in Water [2] [µg/mL] | SMILES
– | – | 0.4 (≈ 0.908 µM) | – | Cc1cc(-c2cccc(-c3ncc[nH]3)c2)nc2c(C(=O)NC(C3CC3)C(F)(F)F)cnn12 (stereo not shown) [III-102]
– | – | 0.7 (≈ 1.91 µM) | – | Cc1cc(-c2cccc(F)c2)nc2c(C(=O)N[C@H](C)C(F)(F)F)cnn12 [III-361]
– | – | 0.7 (≈ 1.97 µM) | – | Cc1cc(-c2ccns2)nc2c(C(=O)NC(C)C(F)(F)F)cnn12 (stereo not shown) [III-178]
– | – | – | 0.8 | Cc1cc(-c2ccc(F)nc2)nc2c(C(=O)NC(C3CC3)C(F)(F)F)cnn12 (stereo not shown) [III-112]
– | – | 0.1 (≈ 0.25 µM) | – | Cc1cc(-c2cccc(C#N)c2)nc2c(C(=O)NC(C3CC3)C(F)(F)F)cnn12 (stereo not shown) [III-72]
– | – | 0.6 (≈ 1.58 µM) | – | Cc1nc(-c2cc(C)n3ncc(C(=O)NC(C4CC4)C(F)(F)F)c3n2)co1 (stereo not shown) [III-249]
